Test system: LPXTGX cleavage enzyme (carbonate extract of D471 membranes)
Assay: Cleavage of 125I-labeled LPSTGE synthetic peptide linked to beads (release of radiolabel) by carbonate extract of streptococcal membranes
Assay type: biochemical, M type 6 streptococcal strain D471 (Streptococcus pyogenes)
Conditions: carbonate extract of the membranes as enzyme source, FIG. 3; for cleavage activity in the presence of inhibitor: 1 mM each
Description: The peptide was radiolabeled with ^125 I using Iodobeads and then the labeled peptide was purified on a Sephadex G10 column and covalently linked by its N-terminal end by EDC (ethyl-3-(3 […])carbodiimide HCl) to an extended arm on a commercially available bead (3M Emphase Biospheres AB1 from Pierce, Rockford, Ill.), and the excess radiolabel removed by washing the beads with 1 M NaCl buffer.
M type 6 streptococcal strain D471 was treated with 0.1 M sodium carbonate (pH 11.5) and incubated for 30 minutes at 0° C. to extract the streptococcal membranes.
The resulting extract was mixed with the labeled beads of Example 1 (50 μl sample, 50 μl 50 mM Tris HCl (pH 8.0) with 10 mM DTT).
The carbonate extract was chromatographed on a 20 HQ perfusion chromatography column, using a Biocad Sprint instrument (Perceptive Biosystem), employing a NaCl gradient from 0 mM to 500 mM (24.9 ml) followed by a 500 mM to 1000 mM (33.2 ml) gradient. To measure the enzyme activity found in the fractions, a 50 μl sample from each fraction was mixed in a reaction buffer in a final volume of 100 μl containing 5 mM DTT and 5 μl of the bead-substrate as described in Example 1. Control samples containing only buffer and the substrate were also mixed and incubated at 37° C. for 4 hours under constant slow rotation. The released radioactivity was then measured in 25 μl of the supernatant obtained after centrifugation. The specific activity was measured after subtracting the control values from the test samples.
FIG. 3 illustrates the enzymatic activity of the carbonate extract of the membranes (as the enzyme source) in the presence of various inhibitors and activators.

| Compound | cleavage activity in the presence of inhibitor | further results |
| --- | --- | --- |
| O=C(O)c1cc[c]([Hg][OH])cc1 [PHMB, parahydroxymercuribenzoic acid] | inhibited cleavage activity | – |
| O=S(=O)(O)c1cc[c]([Hg][OH])cc1 [PHMPS, parahydroxymercuriphenylsulfonic acid] | inhibited cleavage activity | – |
| OC(CS)C(O)CS (stereo not shown) [DTT] | – | enzymatic (cleavage) activity in the presence of activator (5 mM DTT): enhanced |
| [Ca+2] [calcium] | – | enzymatic (cleavage) activity in the presence of divalent cations (divalent cations such as calcium): enhanced |

Reference: patent US5968763A, “Method for screening inhibitors of the enzyme which cleaves the anchor of surface proteins from gram positive bacteria” (The Rockefeller University, priority 1997, dated 1999)
